The values below come from paper PMC5908784, “Extracellular loops 2 and 3 of the calcitonin receptor selectively modify agonist binding and efficacy” (Biochemical Pharmacology, 2018).

Positions count from the first letter of the chain named.

What all share (assay type): cell-based
For one experiment, the target named is T1, hCTR S292A (Homo sapiens, UniProt P30988, S292A).
T1 construct: expressed in transfected cells
T1 sequence (P30988 25-474 S292A): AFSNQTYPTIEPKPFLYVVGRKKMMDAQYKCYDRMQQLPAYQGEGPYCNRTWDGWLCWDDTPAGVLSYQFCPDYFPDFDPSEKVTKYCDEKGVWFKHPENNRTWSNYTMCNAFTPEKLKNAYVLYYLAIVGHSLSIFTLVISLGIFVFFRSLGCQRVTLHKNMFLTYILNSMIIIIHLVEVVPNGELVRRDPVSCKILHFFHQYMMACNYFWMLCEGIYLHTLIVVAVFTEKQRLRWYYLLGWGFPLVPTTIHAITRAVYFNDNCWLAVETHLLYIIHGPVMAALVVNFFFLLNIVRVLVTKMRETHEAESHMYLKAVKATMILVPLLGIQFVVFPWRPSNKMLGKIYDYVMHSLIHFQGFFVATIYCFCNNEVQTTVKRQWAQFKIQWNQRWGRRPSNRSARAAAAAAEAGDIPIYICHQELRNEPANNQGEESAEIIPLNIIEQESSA
Put plainly: ERK1/2 phosphorylation. To be noted: pERK maximal response, CV1-FlpIn cells, mean ± S.E.M. The method in brief:
(§1)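 First, cells (2.5 × 10^4 per well) were plated and left overnight. Agonist concentration-response data were then scaled to the peak signal given by 10% FBS at 6 min. Finally, a 3-parameter logistic equation yielded EC50 and Emax.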

Another experiment has as its target T2, hCTR H296A (Homo sapiens, UniProt P30988, H296A).
T2 construct: c-Myc (N); expressed in transfected cells
T2 sequence (P30988 25-474 H296A): T1 sequence (P30988 25-474 S292A) with A268S, H272A
Put plainly: ERK1/2 phosphorylation. The settings on record: pERK maximal response, CV1-FlpIn cells, mean ± S.E.M. The method in brief: as §1

The target of the next experiment is T3, hCTR L291A (Homo sapiens, UniProt P30988, L291A).
T3 construct: expressed in transfected cells
T3 sequence (P30988 25-474 L291A): T1 sequence (P30988 25-474 S292A) with L267A, A268S
Put plainly: IP1 accumulation. To be noted: IP1 maximal response, mean ± S.E.M., SEM. How it is done:
(§2) Cells (2.5 × 10^4 cells/well) were plated into 96 well trays and cultured overnight. Cells were stimulated with increasing concentration of ligands for 60 min in the presence of LiCl. Samples were lysed and endogenous IP1 was measured using an IP-One HTRF® assay kit (CisBio) as specified by the manufacturer. Data were normalized to the maximal response elicited by 100 μM of ATP.
(§3) Data were corrected for radioligand occupancy using the Cheng-Prusoff equation in Prism; as such data are reported as pKi. Emax and EC50 were estimated from concentration-response curves using with a 3-parameter logistic equation in Prism (v7). These values are a composite of functional affinity, efficacy and stimulus response coupling. […] Significance was accepted at P < 0.05.

In a further experiment the target is T4, hCTR N288A (Homo sapiens, UniProt P30988, N288A).
T4 construct: expressed in transfected cells
T4 sequence (P30988 25-474 N288A): T1 sequence (P30988 25-474 S292A) with N264A, A268S
Put plainly: IP1 accumulation. To be noted: IP1 maximal response, mean ± S.E.M., SEM. How it is done: as §2, §3

The next experiment concerns the target T5, hCTR Y372A (Homo sapiens, UniProt P30988, Y372A).
T5 construct: c-Myc (N); expressed in transfected cells
T5 sequence (P30988 25-474 Y372A): T1 sequence (P30988 25-474 S292A) with A268S, Y348A
In words: IP1 accumulation. The settings on record: IP1 maximal response, mean ± S.E.M., SEM. On the procedure: as §2, §3

As for `CC(C)C[C@H](NC(=O)[C@H](CCCCN)NC(=O)CNC(=O)[C@H](CC(C)C)NC(=O)[C@@H](NC(=O)[C@@H]1CSSC[C@H](N)C(=O)N[C@@H](CO)C(=O)N[C@@H](CC(N)=O)C(=O)N[C@@H](CC(C)C)C(=O)N[C@@H](CO)C(=O)N[C@@H]([C@@H](C)O)C(=O)N1)C(C)C)C(=O)N[C@@H](CO)C(=O)N[C@@H](CCC(N)=O)C(=O)N[C@@H](CCC(=O)O)C(=O)N[C@@H](CC(C)C)C(=O)N[C@@H](Cc1c[nH]cn1)C(=O)N[C@@H](CCCCN)C(=O)N[C@@H](CC(C)C)C(=O)N[C@@H](CCC(N)=O)C(=O)N[C@H](C(=O)N[C@@H](Cc1ccc(O)cc1)C(=O)N1CCC[C@H]1C(=O)N[C@@H](CCCNC(=N)N)C(=O)N[C@H](C(=O)N[C@@H](CC(N)=O)C(=O)N[C@H](C(=O)NCC(=O)N[C@@H](CO)C(=O)NCC(=O)N[C@H](C(=O)N1CCC[C@H]1C(N)=O)[C@@H](C)O)[C@@H](C)O)[C@@H](C)O)[C@@H](C)O` [sCT], the maximal effect (Emax) turned out to be 121 ± 7% at hCTR S292A; 152 ± 9% at hCTR H296A; 85 ± 4% at hCTR L291A; 119 ± 6% at hCTR N288A; 46 ± 4% at hCTR Y372A.

A word on the Emax: it is the size of the effect at its maximum, as opposed to the concentration needed.
